“And” between values parts separate entries of the source, which are not always exact repeats. Equal values may be shown once.
Assay: Cell-based activity under Prompt Conditions: Cell-based activity under Prompt Conditions. Rat or human NHE3-mediated Na+-dependent H+ antiport was measured using a modification of the pH sensitive dye method originally reported by Paradiso (PNAS USA. 81:7436-7440, 1984). Opossum kidney (OK) cells were obtained from the ATCC and propagated per their instructions. The rat NHE3 gene (GenBank M85300) or the human NHE3 gene (GenBank NM_004174.1) was introduced into OK cells via electroporation, and cells were seeded into 96 well plates and grown overnight. Medium was aspirated from the wells, cells were washed twice with NaCl-HEPES buffer (100 mM NaCl, 50 mM HEPES, 10 mM glucose, 5 mM KCl, 2 mM CaCl2, 1 mM MgCl2, pH 7.4), then incubated for 30 min at room temperature with NH4Cl-HEPES buffer (20 mM NH4Cl, 80 mM NaCl, 50 mM HEPES, 5 mM KCl, 2 mM CaCl2, 1 mM MgCl2, pH 7.4) containing 5 μM bis(acetoxymethyl) 3,3′-(3′,6′-bis(acetoxymethoxy)-5-((acetoxymethoxy)carbonyl)-3-oxo-3H-spiro[isobenzofuran-1,9′-xanthene]-2′,7′-diyl)dipropanoate (BCECF-AM).Cells were washed twice with Ammonium free, Na+-free HEPES (100 mM choline, 50 mM HEPES, 10 mM glucose, 5 mM KCl, 2 mM CaCl2, 1 mM MgCl2, pH 7.4) and incubated in the same buffer for 10 minutes at room temperature to lower intracellular pH. […] Initial rates were plotted as the average 2 or more replicates, and pIC50 values were estimated using GraphPad Prism.

`CN1Cc2c(Cl)cc(Cl)cc2[C@H](c2cccc(S(=O)(=O)NCCOCCOCCOCCNC(=O)CN(CC(=O)NCCOCCOCCOCCNS(=O)(=O)c3cccc([C@@H]4CN(C)Cc5c(Cl)cc(Cl)cc54)c3)CC(=O)NCCOCCOCCOCCNS(=O)(=O)c3cccc([C@@H]4CN(C)Cc5c(Cl)cc(Cl)cc54)c3)c2)C1` gave an IC50 of 79.4 nM.

Work on `CCOCCN(CC(=O)NCCOCCOCCOCCNS(=O)(=O)c1cccc([C@@H]2CN(C)Cc3c(Cl)cc(Cl)cc32)c1)CC(=O)NCCOCCOCCOCCNS(=O)(=O)c1cccc([C@@H]2CCN(C)c3c(Cl)cc(Cl)cc32)c1` yielded an IC50 of 63.1 nM.

Work on `CN1Cc2c(Cl)cc(Cl)cc2[C@H](c2cccc(S(=O)(=O)NCCOCCOCCNC(=O)NCCCN(CCCNC(=O)NCCOCCOCCNS(=O)(=O)c3cccc([C@@H]4CN(C)Cc5c(Cl)cc(Cl)cc54)c3)CCCNC(=O)NCCOCCOCCNS(=O)(=O)c3cccc([C@@H]4CN(C)Cc5c(Cl)cc(Cl)cc54)c3)c2)C1` yielded an IC50 of 562 nM.

Compound `CN1Cc2c(Cl)cc(Cl)cc2[C@H](c2cccc(S(=O)(=O)NCCOCCOCCNC(=O)CCC(CCC(=O)NCCOCCOCCNS(=O)(=O)c3cccc([C@@H]4CN(C)Cc5c(Cl)cc(Cl)cc54)c3)(CCC(=O)NCCOCCOCCNS(=O)(=O)c3cccc([C@@H]4CN(C)Cc5c(Cl)cc(Cl)cc54)c3)NC(=O)COCC(=O)O)c2)C1` has an IC50 of 25.1 nM.

Compound `CCOCCOCCOCCNC(=O)[C@H](O)[C@@H](O)C(=O)NCCOCCOCCOCCNS(=O)(=O)c1ccc(O[C@H]2c3ccccc3C[C@@H]2N2CCCCC2)cc1` has an IC50 of 20 nM.

Work on `O=C(NCCOCCOCCNS(=O)(=O)c1ccc(O[C@H]2c3ccccc3C[C@@H]2N2CCCCC2)cc1)[C@H](O)[C@@H](O)C(=O)NCCOCCOCCNS(=O)(=O)c1ccc(O[C@H]2c3ccccc3C[C@@H]2N2CCCCC2)cc1` yielded an IC50 of 3.98 nM.

For `CCCOCNC(=O)NCCCCNC(=O)NCCOCCOCCNC(=O)NCCOCCOCCN1CCN(c2cccc(-c3nc(N=C(N)N)nc4ccc(Cl)cc34)c2)CC1`, the IC50 was 25.1 nM.

Compound `CN1Cc2c(Cl)cc(Cl)cc2[C@H](c2cccc(S(=O)(=O)N(C)CCOCCOCCNC(=O)CCN(CCC(=O)NCCOCCOCCN(C)S(=O)(=O)c3cccc([C@@H]4CN(C)Cc5c(Cl)cc(Cl)cc54)c3)CCC(=O)NCCOCCOCCN(C)S(=O)(=O)c3cccc([C@@H]4CN(C)Cc5c(Cl)cc(Cl)cc54)c3)c2)C1` has an IC50 of 316 nM.

For `CN(C)[C@H]1Cc2c(Cl)cc(Cl)cc2[C@@H]1Oc1ccc(S(=O)(=O)NCCOCCOCCNC(=O)CCC(=O)NCCOCCOCCNS(=O)(=O)c2ccc(O[C@H]3c4cc(Cl)cc(Cl)c4C[C@@H]3N(C)C)cc2)cc1`, the IC50 was 3.98 nM.

`CNC(=O)NC(CCC(=O)NCCOCCOCCNS(=O)(=O)c1cccc([C@@H]2CN(C)Cc3c(Cl)cc(Cl)cc32)c1)(CCC(=O)NCCOCCOCCNS(=O)(=O)c1cccc([C@@H]2CN(C)Cc3c(Cl)cc(Cl)cc32)c1)CCC(=O)NCCOCCOCCNS(=O)(=O)c1cccc([C@@H]2CN(C)Cc3c(Cl)cc(Cl)cc32)c1` gave an IC50 of 794 nM.

With `O=C(NCCOCCOCCNS(=O)(=O)c1ccc(O[C@H]2c3ccccc3C[C@@H]2N2CCCCC2)cc1)c1cccc(C(=O)NCCOCCOCCNS(=O)(=O)c2ccc(O[C@H]3c4ccccc4C[C@@H]3N3CCCCC3)cc2)c1` the IC50 was less than 10000 nM.

In the case of `CN1Cc2c(Cl)cc(Cl)cc2C(c2cccc(S(N)(=O)=O)c2)C1` (stereo not given), the IC50 is reported as 251 nM.

`CN(C)[C@H]1Cc2ccc(F)cc2[C@@H]1Oc1ccc(S(=O)(=O)NCCOCCOCCNC(=O)NCCCCNC(=O)NCCOCCOCCNS(=O)(=O)c2ccc(O[C@H]3c4cc(F)ccc4C[C@@H]3N(C)C)cc2)cc1` gave an IC50 of less than 10000 nM.

Compound `N[C@@H]1CCCN([C@H]2Cc3c(Cl)cc(Cl)cc3[C@@H]2Oc2ccc(S(=O)(=O)NCCOCCOCCNC(=O)NCCCCNC(=O)NCCOCCOCCNS(=O)(=O)c3ccc(O[C@H]4c5cc(Cl)cc(Cl)c5C[C@@H]4N4CCC[C@@H](N)C4)cc3)cc2)C1` has an IC50 of 39.8 nM.

Work on `CN1Cc2c(Cl)cc(Cl)cc2[C@H](c2cccc(S(=O)(=O)NCCOCCOCCOCCNC(=O)c3ccc(-c4ccc(Cl)cc4)cc3)c2)C1` yielded an IC50 of less than 10000 nM.

With `CN1Cc2c(Cl)cc(Cl)cc2[C@H](c2cccc(S(=O)(=O)NCCOCCOCCOCCn3cc(CN(Cc4cn(CCOCCOCCOCCNS(=O)(=O)c5cccc([C@@H]6CN(C)Cc7c(Cl)cc(Cl)cc76)c5)nn4)Cc4cnnn4CCOCCOCCOCCNS(=O)(=O)c4cccc([C@@H]5CN(C)Cc6c(Cl)cc(Cl)cc65)c4)nn3)c2)C1` the IC50 was 5010 nM.

`CC(=O)C(CCC(=O)NCCOCCOCCNS(=O)(=O)c1cccc([C@@H]2CN(C)Cc3c(Cl)cc(Cl)cc32)c1)(CCC(=O)NCCOCCOCCNS(=O)(=O)c1cccc([C@@H]2CN(C)Cc3c(Cl)cc(Cl)cc32)c1)CCC(=O)NCCOCCOCCNS(=O)(=O)c1cccc([C@@H]2CN(C)Cc3c(Cl)cc(Cl)cc32)c1` gave an IC50 of 316 nM.

Compound `CN1Cc2c(Cl)cc(Cl)cc2[C@H](c2cccc(S(=O)(=O)NCCOCCOCCOCCNC(=O)CN(CCN(CC(=O)O)CC(=O)NCCOCCOCCOCCNS(=O)(=O)c3cccc([C@@H]4CN(C)Cc5c(Cl)cc(Cl)cc54)c3)CC(=O)O)c2)C1` has an IC50 of 10 nM.

Compound `CN(C)CC(=O)NCCOCCOCCNC(=O)NCCOCCOCCN1CCN(c2cccc(-c3nc(NC(=N)N)nc4ccc(Cl)cc34)c2)CC1` has an IC50 of 39.8 nM.

With `N=C(N)Nc1nc(-c2ccc(S(=O)(=O)NCCOCCOCCN)cc2)c2cc(Cl)ccc2n1` the IC50 was 126 nM.

Work on `CN1Cc2c(Cl)cc(Cl)cc2[C@H](c2cccc(S(=O)(=O)NCCOCCOCCNC(=O)CCC(CCC(=O)NCCOCCOCCNS(=O)(=O)c3cccc([C@@H]4CN(C)Cc5c(Cl)cc(Cl)cc54)c3)(CCC(=O)NCCOCCOCCNS(=O)(=O)c3cccc([C@@H]4CN(C)Cc5c(Cl)cc(Cl)cc54)c3)NC(=O)NC[C@H](O)[C@@H](O)[C@H](O)[C@H](O)CO)c2)C1` yielded an IC50 of 56.2 nM.

Work on `CN(CC(=O)O)CC(=O)NC(CCC(=O)NCCOCCOCCNS(=O)(=O)c1cccc([C@@H]2CN(C)Cc3c(Cl)cc(Cl)cc32)c1)(CCC(=O)NCCOCCOCCNS(=O)(=O)c1cccc([C@@H]2CN(C)Cc3c(Cl)cc(Cl)cc32)c1)CCC(=O)NCCOCCOCCNS(=O)(=O)c1cccc([C@@H]2CN(C)Cc3c(Cl)cc(Cl)cc32)c1` yielded an IC50 of 50.1 nM.

With `CN1Cc2c(Cl)cc(Cl)cc2[C@H](c2cccc(S(=O)(=O)NCCOCCOCCOCCNC(=O)CC(O)(CC(=O)NCCOCCOCCOCCNS(=O)(=O)c3cccc([C@@H]4CN(C)Cc5c(Cl)cc(Cl)cc54)c3)C(=O)NCCOCCOCCOCCNS(=O)(=O)c3cccc([C@@H]4CN(C)Cc5c(Cl)cc(Cl)cc54)c3)c2)C1` the IC50 was 100 nM.

`O=C(NCCOCCOCCNS(=O)(=O)c1ccc(O[C@H]2c3ccccc3C[C@@H]2N2CCCCC2)cc1)c1ccc(C(=O)NCCOCCOCCNS(=O)(=O)c2ccc(O[C@H]3c4ccccc4C[C@@H]3N3CCCCC3)cc2)cc1` gave an IC50 of 7.94 nM.

Compound `N=C(N)Nc1nc(-c2cccc(S(=O)(=O)NCCOCCOCCOCCN)c2)c2cc(Cl)ccc2n1` has an IC50 of 794 nM.

For `CN1Cc2c(Cl)cc(Cl)cc2[C@H](c2cccc(S(=O)(=O)NCCOCCOCCNC(=O)CN(CCOCCOCCOCCN)CC(=O)NCCOCCOCCNS(=O)(=O)c3cccc([C@@H]4CN(C)Cc5c(Cl)cc(Cl)cc54)c3)c2)C1`, the IC50 was 15.8 nM.

`CN1Cc2c(Cl)cc(Cl)cc2[C@H](c2cccc(S(=O)(=O)NCCOCCOCCNC(=O)CN(CC(=O)NCCOCCOCCNS(=O)(=O)c3cccc([C@@H]4CN(C)Cc5c(Cl)cc(Cl)cc54)c3)CC(=O)NCCOCCOCCNS(=O)(=O)c3cccc([C@@H]4CN(C)Cc5c(Cl)cc(Cl)cc54)c3)c2)C1` showed an IC50 of 501 nM.

For `CN1Cc2c(Cl)cc(Cl)cc2[C@H](c2cccc(S(=O)(=O)NCCOCCOCCNC(=O)NCCN(CCNC(=O)NCCOCCOCCNS(=O)(=O)c3cccc([C@@H]4CN(C)Cc5c(Cl)cc(Cl)cc54)c3)C(=O)NCCOCCOCCN)c2)C1`, the IC50 was 3.98 nM.

`CN(C)[C@H]1Cc2c(Cl)cc(Cl)cc2[C@@H]1Oc1ccc(S(=O)(=O)NCCOCCOCCNC(=O)COCC(=O)NCCOCCOCCNS(=O)(=O)c2ccc(O[C@H]3c4cc(Cl)cc(Cl)c4C[C@@H]3N(C)C)cc2)cc1` gave an IC50 of 7.94 nM.

With `CN1Cc2c(Cl)cc(Cl)cc2[C@H](c2cccc(S(=O)(=O)NCCOCCOCCNC(=O)CCC(CCC(=O)NCCOCCOCCNS(=O)(=O)c3cccc([C@@H]4CN(C)Cc5c(Cl)cc(Cl)cc54)c3)(CCC(=O)NCCOCCOCCNS(=O)(=O)c3cccc([C@@H]4CN(C)Cc5c(Cl)cc(Cl)cc54)c3)NC(=O)NCC(=O)O)c2)C1` the IC50 was 29.5 nM.

With `CN1Cc2c(Cl)cc(Cl)cc2[C@H](c2cccc(S(=O)(=O)NCCOCCOCCNC(=O)CCC(CCC(=O)NCCOCCOCCNS(=O)(=O)c3cccc([C@@H]4CN(C)Cc5c(Cl)cc(Cl)cc54)c3)(CCC(=O)NCCOCCOCCNS(=O)(=O)c3cccc([C@@H]4CN(C)Cc5c(Cl)cc(Cl)cc54)c3)NC(=O)NC(CO)(CO)CO)c2)C1` the IC50 was less than 10000 nM.

In the case of `CN1Cc2c(Cl)cc(Cl)cc2[C@@H](c2cccc(S(=O)(=O)NCCOCCOCCNC(=O)NCCCCNC(=O)NCCOCCOCCNS(=O)(=O)c3cccc([C@@H]4CN(C)Cc5c(Cl)cc(Cl)cc54)c3)c2)C1`, the IC50 is reported as 50.1 nM and < 10000 nM.

Work on `CN1Cc2c(Cl)cc(Cl)cc2[C@H](c2cccc(S(=O)(=O)NCCOCCOCCNC(=O)NCCCC(CCCNC(=O)NCCOCCOCCNS(=O)(=O)c3cccc([C@@H]4CN(C)Cc5c(Cl)cc(Cl)cc54)c3)(CCCNC(=O)NCCOCCOCCNS(=O)(=O)c3cccc([C@@H]4CN(C)Cc5c(Cl)cc(Cl)cc54)c3)NC(=O)CCC(=O)O)c2)C1` yielded an IC50 of 20 nM.

`CN1Cc2c(Cl)cc(Cl)cc2[C@H](c2cccc(S(=O)(=O)NCCOCCOCCNC(=O)CCC(CCC(=O)NCCOCCOCCNS(=O)(=O)c3cccc([C@@H]4CN(C)Cc5c(Cl)cc(Cl)cc54)c3)(CCC(=O)NCCOCCOCCNS(=O)(=O)c3cccc([C@@H]4CN(C)Cc5c(Cl)cc(Cl)cc54)c3)NC(=O)N[C@@H](CO)C(=O)O)c2)C1` gave an IC50 of 12.6 nM.

`CN1Cc2c(Cl)cc(Cl)cc2[C@H](c2cccc(S(=O)(=O)NCCOCCOCCOCCNC(=O)CCC(CCC(=O)NCCOCCOCCOCCNS(=O)(=O)c3cccc([C@@H]4CN(C)Cc5c(Cl)cc(Cl)cc54)c3)(CCC(=O)NCCOCCOCCOCCNS(=O)(=O)c3cccc([C@@H]4CN(C)Cc5c(Cl)cc(Cl)cc54)c3)NCc3ccc(-c4ccc(Cl)cc4)cc3)c2)C1` gave an IC50 of less than 10000 nM.

Source: ChEMBL document CHEMBL5726876, “NHE3-binding compounds and methods for inhibiting phosphate transport” (2019)
